Patent US6734168B2, “Endothelial monocyte activating polypeptide II: a mediator which activates host response” (The Trustees of Columbia University in the City of New York, priority 1993, dated 2004)

Tests used:
human PMNs [1] = assay: PMN migration in microchemotaxis chambers; assay type: cell-based; set-up: key to PMN MIGRATION: (+) indicates the peptide induced PMN migration; (−) indicates the peptide did not induce PMN migration above levels seen in controls which contained no chemotactic stimulus
Procedure: (§1) Assessment of mononuclear phagocyte (mononuclears) and polymorphonuclear leukocyte (PMN) migration. Human peripheral blood monocytes were isolated from the blood of normal healthy volunteers (30). Blood was centrifuged on Hisopaque 1077 (Sigma, St. Louis, Mo.), the mononuclear fraction was obtained, washed twice in Earle's balanced salt solution, resuspended in RPMI 1640 containing human serum (10%; Gemini, Calabasas, Calif.), plated on tissue culture dishes and incubated at 37° C. for 1-2 hrs. Nonadherent cells were removed by washing the plate twice with balanced salt solution, and adherent cells were harvested by incubation with calcium-magnesium free buffer containing EDTA (2 mM) for 15 min at 37° C., followed by extensive washing. PMNs were prepared by centrifugation over Hisopaque 1119 as per the manufacturer's protocol (Sigma). Chemotaxis assays were performed in microchemotaxis chamber (NeuroProbe, Bethesda, Md.) containing Nucleopore polycarbonate membranes (5 μm; Nucleopore, Pleasonton, Calif.). Mononuclears or PMNs were suspended in RPMI 1640 containing fetal bovine serum (1%) and 10^4 cells were added per well to the upper chamber. The chemotactic stimulus was added to the indicated chamber, and assays were performed in quadruplicate over a 3 hr or 45 min incubation period at 37° C., with mononuclear cells or PMNs, respectively, after which non-migrating cells were removed, membranes were fixed in methanol, migrating cells were visualized with Wright's stain. Cells in nine high-power fields were counted, and the mean and standard error of the mean (SEM) were determined.
(§2) Cell migration was studied by adding MPs or PMNs (10^4 cells/well) resuspended in RPMI 1640 with fetal calf serum (1%; Gemini) to the upper wells of a microchemotaxis chamber (Neuro Probe, Bethesda, Md.) containing Nucleopore polycarbonate membranes (5 μm, Nucleopore, Pleasanton Calif.), as described (7,29-30). The chemotactic stimulus was placed in the upper or lower chamber, as indicated, and cells were allowed to migrate for 3 hrs (for MPs) or 45 min (for PMNs) at 37° C. Following removal of non-migrating cells, membranes were fixed in methanol and migrating cells were visualized with Wright's stain. Assays were performed in quadruplicate, and cells were counted in nine high-power fields in each case (mean±SEM is shown in the figures).
(§3) Migration of PMNs and MPs—Migration was studied using cells (10^4 and 10^3 cells/well form PMNs and MPs, respectively) resuspended in RPMI 1640 with fetal calf serum (1%) added to the upper wells of a microchemotaxis chamber (Neuro Probe, Bethesda, Md.) containing Nucleopore polycarbonate membranes (5 um, Nucleopor, Pleasanton, Calif.), as described (13, 22, 35). The stimulus was placed in the upper or lower chamber, as indicated, and the cells were allowed to migrate for 3 h (for MPs) or 45 min (for PMNs) at 37° C. Following removal of nonmigrating cells, membranes were fixed in methanol, and migrating cells were visualized with Wright's stain. Assays were performed in quadruplicate, and cells were counted in […] high-power fields in each case (mean±S.E. is shown in the figures).

[2] = system: human peripheral blood monocytes (MPs); assay: Mononuclear phagocyte migration in microchemotaxis chambers; assay type: cell-based
Procedure: as §1, §2, §3

human PMNs [3] = assay: Release of peroxidase generating activity (myeloperoxidase) from PMNs; assay type: cell-based; settings: 60 min at 37° C.
Procedure: Release of peroxidase generating activity from PMNs (myeloperoxidase) was determined by oxidation of the peroxidase substrate 3,3′,5,5′-tetramethylbenzidine (TMB; Sigma), monitored at 620 nm, as described (35). In brief, PMNs (3×10^6 cells/ml; 0.05 ml) were incubated for 60 min at 37° C. with RPMI 1640 containing fetal calf serum (1%) alone or in the presence of phorbol ester (phorbol 12-myristate 13-acetate; Sigma) or EMAP II-derived peptides. TMP and hydrogen peroxide were added for 1 min at room temperature, and the reaction was stopped with sodium azide and acetic acid. Peroxidase activity, assessed by oxidation of TMB, was determined spectrophotometrically and is reported as percent total peroxidase activity (100% is the activity observed with that number of PMNs following 60 min exposure to phorbol ester, 10 μM). A standard curve was generated by assaying peroxidase activity from different numbers of PMNs treated with phorbol ester (10 μM) under these conditions, and peroxidase activity of PMN/EMAP II peptide incubation mixtures was determined by comparison with the linear portion of the standard curve (35).
Release of Peroxidase Generating Activity from PMNs (myeloperoxidase)—Release was determined by a previously described assay (36) which monitors oxidation of the substrate 3,3′,5,5′-tetramethylbenzidine (TMB; Sigma). […]

mouse footpad = assay: Injection of peptides and peptide-albumin conjugates into mouse footpads; assay type: in vivo; settings: unconjugated peptide
Procedure: Preparation and implantation of peptide-albumin conjugates into mice. Peptide-albumin conjugates (made with either […], […] or […]) (SEQ ID NO. 16) were prepared using glutaraldehyde as described (39). In brief, mouse serum albumin (50 μg) was incubated with glutaraldehyde (450 μg) and the indicated peptide (200 μg) in NaCl (0.1 M) Tris (0.05 N; pH 7.3) for 10 min at room temperature. Excess lysine was added (final concentration, 0.5 M), and the albumin-peptide conjugates were dialyzed exhaustively versus phosphate-buffered saline. BALB/c mice (6-12 weeks) each received an injection into the footpad (7,40-41) of 0.05 ml of a solution of either (i) albumin-peptide conjugate (50 μg, total protein/footpad), (ii) albumin treated with glutaraldehyde in an identical fashion, except that no peptide was present (50 μg, total protein/footpad), (iii) native albumin (50 μg total protein/footpad), or (iv) buffer alone. At the indicated time, animals were sacrificed by humane euthanasia, footpads were harvested, fixed in buffered formalin (10%), decalcified, and embedded in paraffin. Sections were stained with hematoxylin and eosin.

EC50 (human PMNs [1]; four experiments, PMNs from three individuals, read-out: Peptide concentration for half-maximal PMN migration): 0.15 to 0.3 nM
Release of PMN myeloperoxidase activity (peroxidase generation assay) (human PMNs [3]): released PMN myeloperoxidase activity
Sequence: ASRLDLRIGRIVTAKY [residues #6-20 from EMAP II, Cys to Arg substitution at position #15, and a C-terminal Tyr]
Dose above which PMN migration reached an apparent maximum (human PMNs [1]; data not shown): > 1 nM
Induction of PMN migration (chemotaxis) (human PMNs [1]; microchemotaxis chamber, 45 min at 37° C.): led to induction of migration
PMN migration at 100 pM peptide relative to fMLP at 1 μM (human PMNs [1]; peptide 100 pM): roughly comparable
Concentration range over which effect on PMN migration was dose-dependent (human PMNs [1]; peptide added to the lower well): 10 to 10000 pM
PMN MIGRATION (human PMNs [1]; peptides 100 pM in each case): +
Induction of MP (mononuclear cell) migration (chemotaxis) ([2]; microchemotaxis chamber, 3 hrs at 37° C.): induce chemotaxis
MP migration at 100 pM peptide relative to FMLP at 1 μM ([2]; peptide 100 pM): similar
Inflammatory response to free peptide injected subcutaneously into mice (mouse footpad): at most a transient inflammatory response
